Results taken from patent US6737383B1, “Herbicidal oxadiazolidines” (priority 1999, dated 2004).

Tests used:
bedstraw = experiment: Test B pre/postemergence bedstraw; format: in vivo, Galium aparine
Procedure, shortened: (§1)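 Response is a visual 0-to-10 score relative to untreated plants, where 0 means no effect and 10 means complete control, taken twelve to sixteen days after application. Treatments went onto soil at planting and onto foliage of 1- to 4-leaf plants, using a surfactant-containing non-phytotoxic solvent.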

blackgrass = experiment: Test B pre/postemergence blackgrass; format: in vivo, Alopecurus myosuroides
Procedure, shortened: as §1

surinam grass = experiment: Test B pre/postemergence surinam grass; format: in vivo, Brachiaria decumbens; conditions: Postemergence
Procedure, shortened: as §1

cocklebur = experiment: Test B pre/postemergence cocklebur; format: in vivo, Xanthium strumarium
Procedure, shortened: as §1

corn = experiment: Test B pre/postemergence corn; format: in vivo, Zea mays
Procedure, shortened: as §1

crabgrass = experiment: Test B pre/postemergence crabgrass; format: in vivo, Digitaria sanguinalis
Procedure, shortened: as §1

giant foxtail = experiment: Test B pre/postemergence giant foxtail; format: in vivo, Setaria faberii
Procedure, shortened: as §1

morningglory = experiment: Test B pre/postemergence morningglory; format: in vivo, Ipomoea hederacea
Procedure, shortened: as §1

pigweed = experiment: Test B pre/postemergence pigweed; format: in vivo, Amaranthus retroflexus
Procedure, shortened: as §1

rape = experiment: Test B pre/postemergence rape; format: in vivo, Brassica napus
Procedure, shortened: as §1

soybean = experiment: Test B pre/postemergence soybean; format: in vivo, Glycine max
Procedure, shortened: as §1

sugar beet = experiment: Test B pre/postemergence sugar beet; format: in vivo, Beta vulgaris
Procedure, shortened: as §1

velvetleaf = experiment: Test B pre/postemergence velvetleaf; format: in vivo, Abutilon theophrasti
Procedure, shortened: as §1

wheat = experiment: Test B pre/postemergence wheat; format: in vivo, Triticum aestivum
Procedure, shortened: as §1

wild oat = experiment: Test B pre/postemergence wild oat; format: in vivo, Avena fatua
Procedure, shortened: as §1

purple nutsedge = experiment: Test B pre/postemergence purple nutsedge; format: in vivo, Cyperus rotundus
Procedure, shortened: as §1

[1] = Postemergence, Rate 62 g/ha, scale 0 to 10, 0 is no effect, 10 is complete control
[2] = Postemergence, Rate 125 g/ha, scale of 0 to 10 where 0 is no effect and 10 is complete control
[3] = Preemergence, Rate 125 g/ha, scale of 0 to 10 where 0 is no effect and 10 is complete control
[4] = Preemergence, Rate 250 g/ha, scale 0 (no effect) to 10 (complete control)
[5] = Rate 62 g/ha, Preemergence, scale 0 to 10
[6] = Rate 250 g/ha, Postemergence, scale 0 to 10, 0 is no effect, 10 is complete control
[7] = Rate 500 g/ha, Postemergence, scale 0 to 10, 0 is no effect, 10 is complete control
[8] = Rate 500 g/ha, Preemergence, scale 0 to 10 (0 no effect, 10 complete control)

`CC(CBr)Cn1c(=O)on(C(=O)N(c2ccc(F)cc2)C(C)C)c1=O` (centres unmarked) [Compound 752] was tested, and the “Plant response rating, Bedstraw” value (bedstraw; [1]) was 0, the “Bedstraw plant response rating” value (bedstraw; [2]) was 0 and the “Plant response rating, Bedstraw” value (bedstraw; [3]) was 10. For the same compound, the “Bedstraw plant response rating” value (bedstraw; [4]) was 10, the “Bedstraw plant response rating” value (bedstraw; [5]) was 0 and the “Bedstraw plant response rating” value (bedstraw; [6]) was 2. The “Bedstraw plant response rating” value (bedstraw; [7]) was 2, the “Bedstraw plant response rating” value (bedstraw; [8]) was 10 and the “Plant response rating, Blackgrass” value (blackgrass; [1]) was 0. For the same compound, the “Blackgrass plant response rating” value (blackgrass; [2]) was 2, the “Plant response rating, Blackgrass” value (blackgrass; [3]) was 9 and the “Blackgrass plant response rating” value (blackgrass; [4]) was 9. The “Blackgrass plant response rating” value (blackgrass; [5]) was 4, the “Blackgrass plant response rating” value (blackgrass; [6]) was 6 and the “Blackgrass plant response rating” value (blackgrass; [7]) was 6. The “Blackgrass plant response rating” value (blackgrass; [8]) was 10, the “Plant response rating, B. signalgrass” value (surinam grass; Rate 62 g/ha, scale 0 to 10, 0 is no effect, 10 is complete control) was 0 and the “B. signalgrass plant response rating” value (surinam grass; Rate 125 g/ha, scale of 0 to 10 where 0 is no effect and 10 is complete control) was 0. The “B. signalgrass plant response rating” value (surinam grass; Rate 250 g/ha, scale 0 to 10, 0 is no effect, 10 is complete control) was 2, the “B. signalgrass plant response rating” value (surinam grass; Rate 500 g/ha, scale 0 to 10, 0 is no effect, 10 is complete control) was 6 and the “Plant response rating, Cocklebur” value (cocklebur; [1]) was 0. The “Cocklebur plant response rating” value (cocklebur; [2]) was 3, the “Plant response rating, Cocklebur” value (cocklebur; [3]) was 0 and the “Cocklebur plant response rating” value (cocklebur; [4]) was 0. The “Cocklebur plant response rating” value (cocklebur; [5]) was 0, the “Cocklebur plant response rating” value (cocklebur; [7]) was 3 and the “Cocklebur plant response rating” value (cocklebur; [8]) was 0. For the same compound, the “Plant response rating, Corn” value (corn; [1]) was 0, the “Corn plant response rating” value (corn; [2]) was 0 and the “Plant response rating, Corn” value (corn; [3]) was 0. For the same compound, the “Corn plant response rating” value (corn; [4]) was 0, the “Corn plant response rating” value (corn; [5]) was 0 and the “Corn plant response rating” value (corn; [6]) was 0. The “Corn plant response rating” value (corn; [7]) was 0, the “Corn plant response rating” value (corn; [8]) was 0 and the “Plant response rating, Crabgrass” value (crabgrass; [1]) was 3. For the same compound, the “Crabgrass plant response rating” value (crabgrass; [2]) was 3, the “Plant response rating, Crabgrass” value (crabgrass; [3]) was 9 and the “Crabgrass plant response rating” value (crabgrass; [4]) was 10. The “Crabgrass plant response rating” value (crabgrass; [5]) was 9, the “Crabgrass plant response rating” value (crabgrass; [6]) was 8 and the “Crabgrass plant response rating” value (crabgrass; [7]) was 10. For the same compound, the “Crabgrass plant response rating” value (crabgrass; [8]) was 10, the “Giant foxtail plant response rating” value (giant foxtail; [2]) was 9 and the “Plant response rating, Giant foxtail” value (giant foxtail; [3]) was 10. The “Giant foxtail plant response rating” value (giant foxtail; [4]) was 10, the “Giant foxtail plant response rating” value (giant foxtail; [5]) was 10 and the “Giant foxtail plant response rating” value (giant foxtail; [6]) was 9. The “Giant foxtail plant response rating” value (giant foxtail; [7]) was 9, the “Giant foxtail plant response rating” value (giant foxtail; [8]) was 10 and the “Plant response rating, Morningglory” value (morningglory; [1]) was 2. For the same compound, the “Morningglory plant response rating” value (morningglory; [2]) was 2, the “Plant response rating, Morningglory” value (morningglory; [3]) was 0 and the “Morningglory plant response rating” value (morningglory; [4]) was 0. For the same compound, the “Morningglory plant response rating” value (morningglory; [5]) was 0, the “Morningglory plant response rating” value (morningglory; [6]) was 8 and the “Morningglory plant response rating” value (morningglory; [7]) was 9. For the same compound, the “Morningglory plant response rating” value (morningglory; [8]) was 0, the “Plant response rating, Redroot pigweed” value (pigweed; [1]) was 0 and the “Redroot pigweed plant response rating” value (pigweed; [2]) was 5. For the same compound, the “Plant response rating, Redroot pigweed” value (pigweed; [3]) was 2, the “Redroot pigweed plant response rating” value (pigweed; [4]) was 10 and the “Redroot pigweed plant response rating” value (pigweed; [5]) was 0. The “Redroot pigweed plant response rating” value (pigweed; [6]) was 5, the “Redroot pigweed plant response rating” value (pigweed; [7]) was 9 and the “Redroot pigweed plant response rating” value (pigweed; [8]) was 10. The “Plant response rating, Rape” value (rape; [1]) was 2, the “Rape plant response rating” value (rape; [2]) was 2 and the “Plant response rating, Rape” value (rape; [3]) was 3. For the same compound, the “Rape plant response rating” value (rape; [4]) was 5, the “Rape plant response rating” value (rape; [5]) was 0 and the “Rape plant response rating” value (rape; [6]) was 4. The “Rape plant response rating” value (rape; [7]) was 4, the “Rape plant response rating” value (rape; [8]) was 5 and the “Plant response rating, Soybean” value (soybean; [1]) was 4. The “Plant response rating, Soybean” value (soybean; [3]) was 0, the “Soybean plant response rating” value (soybean; [4]) was 0 and the “Soybean plant response rating” value (soybean; [5]) was 0. The “Soybean plant response rating” value (soybean; [6]) was 6, the “Soybean plant response rating” value (soybean; [7]) was 6 and the “Soybean plant response rating” value (soybean; [8]) was 0. For the same compound, the “Plant response rating, Sugarbeets” value (sugar beet; [1]) was 3, the “Plant response rating, Sugarbeets” value (sugar beet; [3]) was 0 and the “Sugarbeets plant response rating” value (sugar beet; [4]) was 3. For the same compound, the “Sugarbeets plant response rating” value (sugar beet; [5]) was 0, the “Sugarbeets plant response rating” value (sugar beet; [6]) was 3 and the “Sugarbeets plant response rating” value (sugar beet; [7]) was 3. For the same compound, the “Sugarbeets plant response rating” value (sugar beet; [8]) was 3, the “Plant response rating, Velvetleaf” value (velvetleaf; [1]) was 0 and the “Plant response rating, Velvetleaf” value (velvetleaf; [3]) was 0. For the same compound, the “Velvetleaf plant response rating” value (velvetleaf; [4]) was 0, the “Velvetleaf plant response rating” value (velvetleaf; [5]) was 0 and the “Velvetleaf plant response rating” value (velvetleaf; [6]) was 2. For the same compound, the “Velvetleaf plant response rating” value (velvetleaf; [7]) was 2, the “Velvetleaf plant response rating” value (velvetleaf; [8]) was 2 and the “Plant response rating, Wheat” value (wheat; [1]) was 0. The “Plant response rating, Wheat” value (wheat; [3]) was 0, the “Wheat plant response rating” value (wheat; [4]) was 0 and the “Wheat plant response rating” value (wheat; [5]) was 0. For the same compound, the “Wheat plant response rating” value (wheat; [6]) was 5, the “Wheat plant response rating” value (wheat; [7]) was 5 and the “Wheat plant response rating” value (wheat; [8]) was 0. For the same compound, the “Plant response rating, Wild oats” value (wild oat; [1]) was 0, the “Plant response rating, Wild oats” value (wild oat; [3]) was 0 and the “Wild oats plant response rating” value (wild oat; [4]) was 7. The “Wild oats plant response rating” value (wild oat; [5]) was 0, the “Wild oats plant response rating” value (wild oat; [6]) was 0 and the “Wild oats plant response rating” value (wild oat; [7]) was 0. The “Wild oats plant response rating” value (wild oat; [8]) was 8, the “Plant response rating, Nutsedge” value (purple nutsedge; [1]) was 0 and the “Nutsedge plant response rating” value (purple nutsedge; [2]) was 0. For the same compound, the “Plant response rating, Nutsedge” value (purple nutsedge; [3]) was 0, the “Nutsedge plant response rating” value (purple nutsedge; [5]) was 0 and the “Nutsedge plant response rating” value (purple nutsedge; [6]) was 0. For the same compound, the “Nutsedge plant response rating” value (purple nutsedge; [7]) was 0 and the “Nutsedge plant response rating” value (purple nutsedge; [8]) was 0.
